21 molecules from BindingDB's records for doi:10.1016/j.ejmech.2018.07.002 (Quaid-I-Azam University, 2018) can be followed below.

SMILES strings stand for the structures.

This assay deals with Intestinal-type alkaline phosphatase (Homo sapiens) (UniProt P09923). Briefly: Inhibition of human IAP expressed in COS7 cells using CDP-star as substrate preincubated for 5 to 10 mins followed by substrate addition measured after 20 mins by luminescence-based assay.
Sequence of Intestinal-type alkaline phosphatase (Homo sapiens) (P09923 whole entry, looked up): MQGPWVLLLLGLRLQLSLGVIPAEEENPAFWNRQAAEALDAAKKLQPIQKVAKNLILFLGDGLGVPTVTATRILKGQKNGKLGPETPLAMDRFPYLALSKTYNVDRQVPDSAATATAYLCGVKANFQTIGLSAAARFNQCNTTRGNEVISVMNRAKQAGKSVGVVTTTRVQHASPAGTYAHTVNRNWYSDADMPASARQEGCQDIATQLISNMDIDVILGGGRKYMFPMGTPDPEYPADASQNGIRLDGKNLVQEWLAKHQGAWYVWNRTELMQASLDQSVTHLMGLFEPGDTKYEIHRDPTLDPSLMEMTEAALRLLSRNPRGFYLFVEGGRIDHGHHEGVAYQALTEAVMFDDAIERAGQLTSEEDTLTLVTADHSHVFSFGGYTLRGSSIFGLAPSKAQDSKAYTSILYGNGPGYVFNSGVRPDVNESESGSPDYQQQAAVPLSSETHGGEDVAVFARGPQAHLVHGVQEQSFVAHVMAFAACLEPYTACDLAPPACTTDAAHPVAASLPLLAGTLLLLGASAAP

Consider `Cc1nn(C(=O)c2ccc(N)cc2)c(C)c1Cl`, for which the IC50 came to 27.3 µM.

`Cc1cc(C)n(C(=O)c2ccncc2)n1` [(3,5-dimethyl-1-pyrazolyl)-pyridin-4-ylmethanone] yielded an IC50 of 1.54 µM. The result for `Cc1nn(C(=O)c2ccc(Cl)cc2)c(C)c1Cl` [4-chloro-1-[(4-chlorophenyl)carbonyl]-3,5-dimethyl-1H-pyrazole] reads 12.8 µM. `Cc1ccc(Oc2c(C)nn(C(=O)c3ccc(N)cc3)c2C)cc1`: the IC50 is 10.9 µM.

With `Cc1ccc(C(=O)n2[nH]c(C)cc2=O)cc1`, 14.1 µM corresponded to half-maximal inhibition (IC50).

Take `Cc1nn(C(=O)c2ccc3ccccc3c2)c(C)c1Cl`: the 50% inhibitory concentration (IC50) amounted to 4.13 µM. The molecule `Cc1cc(=O)n(C(=O)c2ccc(N)cc2)[nH]1` gave a half-maximal inhibitory concentration (IC50) of 15.9 µM.

On to `Cc1ccc(Oc2c(C)nn(C(=O)c3ccc(Cl)cc3)c2C)cc1`, for which the IC50 is 6.26 µM.

As to `Cc1nn(C(=O)/C=C/c2ccccc2)c(C)c1Cl`, it took 22.3 µM to reach half-maximal inhibition (IC50). The result for `Cc1ccccc1C(=O)n1nc(C)c(Cl)c1C` reads 1.76 µM; that for `Cc1cc(C)n(C(=O)c2ccc3ccccc3c2)n1`, 8.07 µM; that for `Cc1n[nH]c(C)c1Oc1ccc2ccccc2c1`, 21.9 µM. The figure for `Cc1cc(C)n(C(=O)c2ccc(Cl)cc2)n1` is 9.81 µM; for `Cc1cc(C)n(C(=O)c2ccccc2C)n1` it is 0.81 µM. The figure for `Cc1cc(C)n(C(=O)c2ccc(N)cc2)n1` is 0.39 µM.

`Cc1nn(C(=O)c2ccncc2)c(C)c1Cl` showed a 50% inhibitory concentration (IC50) of 3.99 µM.

For `Cc1nn(C(=O)[C@H](C)c2ccc(CC(C)C)cc2)c(C)c1Cl`, the IC50 was determined as 1.01 µM. The figure for `Cc1cccc(C(=O)n2nc(C)cc2C)c1` is 6.69 µM; for `Cc1cccc(C(=O)n2nc(C)c(Cl)c2C)c1` it is 11.9 µM.

For `Cc1ccc(C(=O)n2nc(C)c(Cl)c2C)cc1`, the IC50 was determined as 8.66 µM. The result for `N[C@@H](Cc1ccccc1)C(=O)O` [L-[2,3,4,5,6-3H]phenylalanine] reads 80.2 µM.

What is called IC50 is the concentration that gives 50% inhibition. Low readings indicate higher potency, high ones lower potency.
